Measurements taken from patent US4046762A, “Esters and amides of 3-aryl-1,4 benzodioxan-2-carboxylic acids” (Instituto Luso Farmaco D'Italia S.r.l., priority 1972, dated 1977).
Where a name gives a salt, the structure may show the parent alone.

Assays:
[1] = system: Stretching from acetic acid; test: Stretching from acetic acid; assay type: in vivo; details: for ED50: read-out: Stretching from acetic acid, DE50
[2] = Indicative acute toxicity, mouse (intraperitoneally); details: in vivo, ip, read-out: Indicative acute toxicity, DL50
Antituxive activity = test: Antituxive activity; assay type: in vivo; details: for ED50: read-out: Antituxive activity, DE50
Antipyresis = test: Antipyresis, rat; assay type: in vivo; details: 65 mg/kg
Oedema from charragenin = test: Oedema from charragenin, rat; assay type: in vivo; details: i.p.
central nervous system [3] = test: Activity on central nervous system, mouse: depression of spontaneous motility; assay type: in vivo; details: orally
central nervous system [4] = test: Activity on central nervous system, mouse: Stereotipy (apomorphine); assay type: in vivo; details: orally, 40 mg/kg
central nervous system [5] = test: Activity on central nervous system, mouse: Stereotipy (amphetamine); assay type: in vivo; details: orally, 180 mg/kg
central nervous system [6] = test: Activity on central nervous system, mouse: Catalepsy (haloperidol); assay type: in vivo; details: orally, 15 mg/kg
central nervous system [7] = test: Activity on central nervous system, mouse: Potentiation of barbituric hypnosis; assay type: in vivo; details: orally, 15 mg/kg
tail of mouse = test: Local anaesthetic activity, tail of mouse; assay type: in vivo
sciatic nerve of rat = test: Local anaesthetic activity, sciatic nerve of rat
ileum of Guinea pig = test: Antihystaminic activity, ileum of Guinea pig; details: Cavia porcellus, 10 γ/ml
Arrhytmia CaCl2 = Arrhytmia CaCl2 - rat; assay type: in vivo; details: intravenously, 7.5 mg/kg

In the case of `O=C(C1Oc2ccccc2OC1c1ccccc1)N1CCN(c2ccccc2)CC1` (stereo not drawn) [LR 394, n'-phenyl-N-(3-phenyl-1,4-benzodioxan-2-ylcarbonyl)-piperazine.H2 0], the ED50 [1] is reported as 22 mg/kg, the LD50 [2] is reported as 330 mg/kg and the “Antituxive activity, %” value (Antituxive activity; 10 mg/kg) is reported as 64%. For the same molecule, the “Antipyresis, %” value (Antipyresis) was 100%, the “Oedema from charragenin, %” value (Oedema from charragenin; 42 mg/kg) was 50% and the ED50 (central nervous system [3]; po, read-out: depression of spontaneous motility, DE50) was 33.5 mg/kg.
In the case of `O=C(NO)C1Oc2ccccc2OC1c1ccccc1` (stereo not drawn) [LR 518, (3-phenyl-1,4-benzodioxan-2-yl)-carbohydroxamic acid], the LD50 [2] is reported as 175 mg/kg, the “Oedema from charragenin, %” value (Oedema from charragenin; 40 mg/kg) is reported as 12% and the “Stereotipy (apomorphine), %” value (central nervous system [4]) is reported as 30%.
For `O=C(C1Oc2ccccc2OC1c1ccccc1)N1CCOCC1` (stereo not drawn) [LR 519, n-(3-phenyl-1,4-benzodioxan-2-ylcarbonyl)-morpholine], the LD50 [2] was 750 mg/kg, the “Oedema from charragenin, %” value (Oedema from charragenin; 180 mg/kg) was 15% and the “Stereotipy (amphetamine), %” value (central nervous system [5]) was 20%.
For `CCN(CC)CCNC(=O)C1Oc2ccccc2OC1c1ccccc1` (stereo not drawn) [LR 510, n-(n',n'-diethylaminoethyl)-(3-phenyl-1,4-benzodioxan-2-ylcarbonyl)-amine], the LD50 [2] was 75 mg/kg, the “Catalepsy (haloperidol), %” value (central nervous system [6]) was 33% and the “Potentiation of barbituric hypnosis, %” value (central nervous system [7]) was 20%.
For `O=C(OCCOCCN1CCOCC1)C1Oc2ccccc2OC1c1ccccc1` (stereo not drawn) [LR 348, morpholinoethoxyethyl (3-phenyl-1,4-benzodioxan-2-yl)-carboxylate,hydrochloride], the ED50 [1] was 15.6 mg/kg, the “Local anaesthetic activity, tail of mouse, DE50” value (tail of mouse) was 2.70 mg/mL and the LD50 [2] was 250 mg/kg. The ED50 (Antituxive activity) was 50 mg/kg, the “Oedema from charragenin, %” value (Oedema from charragenin; 50 mg/kg) was 40% and the “Local anaesthetic activity, sciatic nerve of rat, DE50” value (sciatic nerve of rat) was 12.2 mg/mL. It also gave an inhibition at 10 µg/mL (ileum of Guinea pig) of 60%.
In the case of `CCN(CC)CCOC(=O)C1Oc2ccccc2OC1c1ccccc1` (stereo not drawn) [LR 520, n,n-diethylaminoethyl (3-phenyl-1,4-benzodioxan-2-yl)-carboxylate,citrate], the LD50 [2] is reported as 300 mg/kg, the “Arrhytmia CaCl2” value (Arrhytmia CaCl2) is reported as 40 and the “Oedema from charragenin, %” value (Oedema from charragenin; 60 mg/kg) is reported as 9%.
Work on `CC(C)NC(=O)C1Oc2ccccc2OC1c1ccccc1` (stereo not drawn) [LR 367, n-(3-phenyl-1,4-benzodioxan-2-ylcarbonyl)-isopropylamine] yielded an ED50 [1] of 138 mg/kg, an LD50 [2] greater than 3000 mg/kg and an ED50 (Antituxive activity) of 86 mg/kg. The “Oedema from charragenin, %” value (Oedema from charragenin; 200 mg/kg) was 30% and the “depression of spontaneous motility, %” value (central nervous system [3]; 150 mg/kg) was 32%.
For `CCN(CC)CCOCCOC(=O)C1Oc2ccccc2OC1c1ccccc1` (stereo not drawn) [LR 349, n,n-diethylaminoethoxyethyl (3-phenyl-1,4-benzodioxan-2-yl)-carboxylate, citrate], the “Stretching from acetic acid, %” value ([1]; 10 mg/kg) was 20%, the “Local anaesthetic activity, tail of mouse, DE50” value (tail of mouse) was 2.85 mg/mL and the LD50 [2] was 200 mg/kg. The ED50 (Antituxive activity) was 39.5 mg/kg, the “Oedema from charragenin, %” value (Oedema from charragenin; 50 mg/kg) was 50% and the “Local anaesthetic activity, sciatic nerve of rat, DE50” value (sciatic nerve of rat) was 11.2 mg/mL.
